Reference: patent US20090215782A1, “Use of PDE-5 Inhibitors for Endothelial Repair of Tissues Impaired by Trauma or Disease” (priority 2005, published 2009)

Columns and labels:
[1] = system: haematological and bone marrow tissues; conditions: chronic administration; cited from earlier work
[2] = system: circulating endothelial progenitor cells (EPCs); assay: Concentration of circulating EPCs (CD34/AC133 double positive) in peripheral blood by flow cytometry after oral Vardenafil 20 mg, placebo crossover; format: in vivo, human; conditions: healthy men, mean±SD
Description: 10 healthy men without cardiovascular risk factors were selected for the study. The ages of the 10 men ranged from 21 to 25 years. Blood samples taken for the purposes of the study were evaluated by flow cytometry, as previously described (Scheubel R. J., Zorn H., Silber R. E., Kuss O., Morawietz H., Holtz J., Simm A. Age-dependent depression in circulating endothelial cell progenitor cells in patients undergoing coronary artery bypass grafting. J Am Coll Cardiol. 42, 2073-2080,2003).
Control samples from each subject were examined to validate the study. The samples were obtained in triplicate, on different days and at different hours of the day and examined. No significant variability was found among the subjects.
Subjects were randomly allocated to two groups of five subjects. The first group received Vardenafil 20 mg on the first visit and a placebo one week later. The second group received the placebo on the first visit and Vardenafil 20 mg one week later. […]
Analysis was performed on a sample of 150 μl of peripheral blood extracted from each subject. […] After incubation, the cells were lysed in NH4Cl lysis buffer, washed twice with PBS 1% FCS and then analysed by flow cytometry.
With reference to FIG. 1, forward and side scatter gates were set to include all viable mononuclear cells; into this gate 500,000 events were acquired. […] Cells were scored using a FACSCalibur analyzer (Becton Dickinson Immunocytometry Systems, San Jose, Calif., USA) and data processing using the CellQuest software programmes (Becton Dickinson Immunocytometry Systems).
The percentage of EPCs, in each subject, was calculated by dividing the number of double positive events by the number of total events. The total number of EPCs per volume, of each subject, per volume was calculated by multiplying the percentage of EPCs with the leukocyte count. The data is expressed as mean±SD. Comparisons of the total number of EPCs at baseline, and at two and four hours after the administration of either Vardenafil 20 mg or the placebo were analyzed by the Student's t-test for matched data. […]

Row | Compound | bone marrow density (indicated by a decrease in adipose tissue percentage) [1] | lymphomonocytic component count [1] | mean increase in EPCs after Vardenafil administration ([2]; four hours after Vardenafil 20 mg vs baseline) [EPCs/Ml] | percentage increase of circulating EPCs with respect to baseline ([2]; four hours after Vardenafil 20 mg) [%] | concentration of EPCs ([2]; four hours after administration of Vardenafil 20 mg, baseline 1849.7±384.3, p<0.001) [EPC/mL]
1 | CCCOc1ccc(S(=O)(=O)NCCC2CCCN2C)cc1-c1nc2c(CCC)nn(C)c2c(=O)[nH]1 (centres unmarked) [DA-8159] | increase | increase |  |  | 
2 | CCCc1nc(C)c2c(=O)[nH]c(-c3cc(S(=O)(=O)N4CCN(CC)CC4)ccc3OCC)nn12 [Vardenafil] |  |  | 795.7±176.7 | 44.1±16.5 | 2645.4±509.5
